This note sets out measurements from patent US11154621B2, “Liponucleotide-based therapy for COPD” (priority 2017, dated 2021).

For assay [1], the system named is BLEO-induced pulmonary fibrosis in C57BL/6 mice. Briefly: Mouse model of pulmonary fibrosis (bleomycin exposure). It counts as in vivo. Conditions: for Mortality: CDP-CHO, CDP-ETH 5 mg/kg, CDP-DAG 0.5 mg/kg. As to the method:
To experimentally determine the efficacy of the liponucleotides (lipoNTs) CDP-choline (CDP-CHO), CDP-ethanolamine (CDP-ETH), and CDP-diacylglycerol 16:0/16:0 (CDP-DAG) as therapeutics in a mouse model of pulmonary fibrosis (bleomycin exposure) (Chung S, et al. Oncotarget 2016 7:17532-17546).
To induce […], bleomycin (BLEO) was administered intratracheally to adult female C57BL/6 mice (n=5-10 per group) by per os intubation under light ketamine/xylazine anesthesia at day 0. LipoNTs were administered daily by the intraperitoneal route in 50 μl sterile saline at the timepoints indicated for each group.
Data were collected 21 days after first exposure to BLEO in terminal experiments.
2. Carotid arterial O2 saturation (SaO2) and heart rate were measured in conscious individually-identified animals by pulse oximetry using the MouseOx system.
3. Static lung compliance (CST) was measured in live mice by the forced-oscillation method using the SciReq flexiVent computer-controlled mechanical ventilator, as in previous studies (Traylor Z P, et al. Am J Physiol Lung Cell Mol Physiol 2010 298:L437-L445).
4. Following flexiVent analysis, lungs were removed and flash frozen in liquid N2 for analysis of collagen content. Soluble collagen was measured by a standard Sircol assay.

In assay [2] the test system is elastase-induced emphysema in C57BL/6 mice. The assay is described as follows: Mouse model of emphysema (intratracheal elastase administration). It counts as in vivo. The settings on record: daily i.p. days 1-13, day 14. As to the method: To experimentally determine the efficacy of the liponucleotides (lipoNTs) CDP-choline (CDP-CHO), CDP-ethanolamine (CDP-ETH), and CDP-diacylglycerol 16:0/16:0 (CDP-DAG) as therapeutics in a mouse model of emphysema (intratracheal elastase administration) (Yoshida S, et al. Am J Physiol Lung Cell Mol Physiol 2012 303:L852-L860).
To induce emphysema, porcine pancreatic elastase was administered intratracheally to adult female C57BL/6 mice (n=5-10 per group) by per os intubation under light anesthesia at day 0 and day 7. LipoNTs were administered daily by the intraperitoneal route in 50 μl sterile saline at the timepoints indicated for each group.
Analysis of elastase and lipoNT effects: Data were collected 14 days after first elastase administration in terminal experiments.
1. Static lung compliance (CST) was measured in live mice by the forced-oscillation method using the SciReq flexiVent computer-controlled mechanical ventilator, as in previous studies (Traylor Z P, Yet al. Am J Physiol Lung Cell Mol Physiol 2010 298:L437-L445).
2. Following flexiVent analysis, bronchoalveolar lavage was performed on all mice using 0.8 ml PBS. BALF total and differential cell counts (trypan-blue stained live cells and Giemsa-stained cytospins, respectively) were performed on cell pellets to assess inflammatory cell infiltrates. BALF alveolar macrophage (AM) counts were determined.

The subject of assay [3] is influenza A/WSN/33 (H1N1)-infected mice. Briefly: Effect of influenza infection and i.p. liponucleotide treatment on lung function. It counts as in vivo, mouse.
The mark [4] stands for this setting: infected mice, day 6, i.p. daily from 1-5 days post-infection, CDP-CHO, CDP-ETH 100 μg/mouse, CDP-DAG 10 μg/mouse.

With `C[N+](C)(C)CCOP(=O)(O)OP(=O)(O)OC[C@H]1O[C@@H](n2ccc(N)nc2=O)C(O)C1O` (stereo partly shown) [CDP-CHO, CDP-choline], the Mortality entry is listed as “significantly attenuated BLEO-induced mortality” in assay [1] (BLEO, daily i.p. D1-20, day 21) and 20% in assay [1] (BLEO, daily i.p. D1-20, day 21, listed as CHO). The “CST (ml/cmH2O ×10)” value in assay [1] (BLEO, daily i.p. D1-20, day 21) was 0.38 ± 0.02 ml/cmH2O ×10. Further, the “SaO2 (%)” value was found to be 97.0 ± 1.0% in assay [1] (BLEO, daily i.p. D1-20, day 21) and 93.5 ± 1.0 % in assay [3] (setting [4]). Moreover, the “Collagen” value in assay [1] (BLEO, daily i.p. D1-20, lung soluble collagen, day 21) worked out at 0.79 ± 0.08 mg/mL. For the same compound, the “other beneficial effects in this model of pulmonary fibrosis” value in assay [1] (daily from 1-20 days after BLEO) was “no other beneficial effects”. Besides, the “static lung compliance (CST)” value in assay [2] (CDP-CHO, CDP-ETH 5 mg/kg, CDP-DAG 0.5 mg/kg) is “decreases CST”. Besides, in assay [2], the “elastase-induced increase in BALF alveolar macrophages (AMs)” value is recorded as “enhanced”. Besides, the PaO2 equivalent result in assay [3] (equivalent of SaO2 increase, from approximately 65 mmHg) was “approximately 85 mmHg”. For the same compound, in assay [3] (equivalent of SaO2 increase, from approximately 88%), the “O2 carrying capacity of blood (CaO2)” value is given as “approximately 97 % of normal”. Besides, the “SaO2 after CDP-choline treatment” value in assay [3] (increased from approximately 85%, infected mice) is recorded as “approximately 96%”. The “effects of single dose treatment late in infection compared with daily treatment” value in assay [3] (infected mice) is “as good as those of daily treatment”.

CDP-diacylglycerol [CDP-DAG]: in assay [3] (setting [4]), the “HR (bpm)” value is given as 600 ± 10 bpm, the “SaO2 (%)” value is 95.2 ± 1.6 % and the “WET:DRY” value was 5.8 ± 0.1.
